PubChem BioAssay AID602156 (GNF / Scripps Winzeler lab, 2011)
pIC50: −log10 of the molar value. Activity calls are given as the source filed them. How the calls were made is not given here.

System: P. yoelii liver stage in HepG2-A16-CD81EGFP, imaging
Assay: Plasmodium liver-stage growth inhibition, dose response, imaging, Malaria Box, P. yoelii, HepG2-A16-CD81EGFP (AID 602156);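 further: infected cells exposed to compound for 48 hours before fixation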

`COc1ccccc1Cc1nc2ccccc2nc1SCC(=O)Nc1cccc(C(F)(F)F)c1` was tested, and the IC50 was > 10000 nM (inactive).

With `c1ccc(CNc2nc(Nc3ccccc3)nc3ccccc23)cc1` the pIC50 was 6.82.

With `CN1CCN(c2ccc(Nc3c4ccccc4nc4ccccc34)cc2)CC1` the pIC50 was 6.26.

`COc1ccc2nc(C)cc(Nc3ccc(Cl)c(Cl)c3)c2c1` was tested, and the pIC50 was 6.36.

For `Oc1cccc(Nc2nc(NCC3CCCO3)c3ccccc3n2)c1` (configuration not stated), the pIC50 was 5.98.

With `O=C1C2=C(Nc3ccccc3SC2c2ccc(OCc3ccccc3)cc2)c2ccccc21` (configuration not stated) the pIC50 was 7.24.

With `C=CC[N+]1(CC#Cc2cccc3ccccc23)CCCCC1` the pIC50 was 6.04.

`COC(=O)C1=CNC=C(C(=O)OC)C1c1cc(OC)c(OC)c(OC)c1` was tested, and the IC50 was > 10000 nM (inactive).

`O=C(O)c1c[nH]c2cc(N3CCCCCC3)c(F)cc2c1=O` was tested, and the IC50 was > 10000 nM (inactive).

Work on `Nc1cccc(C(=O)Nc2ccc(Oc3cccc(Oc4ccc(NC(=O)c5cccc(N)c5)cc4)c3)cc2)c1` yielded a pIC50 of 5.75.

Molecule `CCOc1ccc(Nc2nc(NCc3ccco3)c3ccccc3n2)cc1` has a pIC50 of 6.98.

With `O=C(c1cccs1)N1CCN(c2ccc([N+](=O)[O-])c(NC3CC3)c2)CC1` the pIC50 was 6.16.

Molecule `Cc1ccc2[nH]c(C)c(Br)c(=O)c2c1` has a pIC50 of 6.60.

Molecule `Cc1[nH]c2ccccc2c(=O)c1CC=C(Cl)Cl` has a pIC50 of 6.89.

With `CCCN(CCC)CCCNc1ccc(C(=O)Nc2ccc(C)c(F)c2)cc1[N+](=O)[O-]` the pIC50 was 6.19.

`CC1(C)N=C(N)N=C(N)N1c1ccc(Cl)cc1` gave a pIC50 of 8.59.

`CCCN(C(=O)Nc1c(C(C)C)cccc1C(C)C)C(CC)c1nc2ccccc2c(=O)n1-c1cccc(C)c1` (configuration not stated) showed a pIC50 of 5.20.

For `CCOC(=O)c1ccc(OCC2c3cc(OC)c(OC)cc3CCN2C(=O)c2ccc([N+](=O)[O-])cc2)cc1` (configuration not stated), the IC50 was > 10000 nM (inactive).

With `Cc1cc(Nc2cccc(F)c2)nc(NCc2ccccc2)n1` the pIC50 was 5.96.

With `Clc1ncnc2ncn(Cc3ccccc3)c12` the IC50 was > 10000 nM (inactive).

In the case of `CCOc1ccc2[nH]c(=O)c(CN(CCN(CC)CC)C(=S)NCCCN(CC)CC)cc2c1`, the pIC50 was 5.66.

Molecule `Cc1cc(N)c2ccccc2[n+]1CCCCCCCCCC[n+]1c(C)cc(N)c2ccccc21` has a pIC50 of 6.25.

Work on `OC(CNC1CCCCC1)Cn1c2ccccc2c2ccccc21` (configuration not stated) yielded a pIC50 of 5.41.

Work on `Cc1oc2c(c1C(=O)NCCCn1ccnc1)C(=O)c1ccccc1C2=O` yielded a pIC50 of 6.93.

With `CCN(c1ccccc1)S(=O)(=O)c1ccc(F)c(C(=O)Nc2c(C)cccc2C)c1` the IC50 was > 10000 nM (inactive).

`CC[n+]1cc(-c2ccc(C)cc2)sc1C=C1Sc2ccccc2N1C` gave a pIC50 of 8.35.

`COC(=O)c1cc(NC(=S)NC(=O)c2c(OC)cccc2OC)cc(C(=O)OC)c1` was tested, and the IC50 was > 10000 nM (inactive).

`O=C1CC(c2ccccc2)CC2=C1C(c1ccccc1[N+](=O)[O-])Nc1ccccc1N2` (configuration not stated) was tested, and the IC50 was > 10000 nM (inactive).

With `COC(=O)C1=C(C)NC2=C(C(=O)CC(c3ccccc3Cl)C2)C1c1ccc([N+](=O)[O-])cc1` (configuration not stated) the pIC50 was 6.07.

Molecule `c1ccc(-c2ccc(-c3ccccn3)nc2)nc1` has a pIC50 of 7.40.

In the case of `CN(Cc1ccccc1)C(=O)CSc1nc(NCc2ccccc2)c2ccccc2n1`, the pIC50 was 8.15.

For `COc1ccc(Nc2nc(NCc3ccccc3)c3ccccc3n2)cc1`, the pIC50 was 6.52.

In the case of `Cc1ccc(S(=O)(=O)Nc2nc3n(n2)C(c2ccccc2)C=C(c2ccccc2)N3)cc1` (configuration not stated), the IC50 was > 10000 nM (inactive).

Molecule `Cc1cn2c3ccccc3n(CCN3CCCC3)c2n1` has a pIC50 of 5.97.

`Brc1ccc(-c2c[n+]3c(n2-c2ccccc2)SCC3)cc1` gave a pIC50 of 6.08.

Work on `CCCCCCCCn1c(C)[n+](C)c2cc(Cl)c(Cl)cc21` yielded a pIC50 of 6.38.

In the case of `Cc1nc2ccc(NC(=O)C3CC3)cc2c(=O)n1Cc1ccc(Cl)cc1`, the IC50 was > 10000 nM (inactive).

`CCN1CCN(c2cc(C)c3cc(NC(=O)c4cc(OC)cc(OC)c4)ccc3n2)CC1` was tested, and the pIC50 was 5.43.

In the case of `Cc1cc(NC(c2cccc(Br)c2)c2ccc3cccnc3c2O)no1` (configuration not stated), the pIC50 was 6.83.

`Cc1[nH]c2c(C)cccc2c(=O)c1CC=C(Cl)Cl` showed a pIC50 of 6.77.

`CCCCCCCC[n+]1c(C)n(CC)c2cc(C(=O)OCC)ccc21` was tested, and the pIC50 was 6.00.

`CCC(Sc1nnc(-c2ccc(C)cc2)c(-c2ccc(C)cc2)n1)C(=O)NCCOC` (configuration not stated) gave a pIC50 of 6.52.

For `CCc1c(C#N)c(N)nc(SCC(=O)c2ccc(C)cc2)c1C#N`, the IC50 was > 10000 nM (inactive).

`CCOc1ccc(N2C(N)=NC(N)=NC2(C)C)cc1` gave a pIC50 of 7.33.

Work on `CCCCCCOc1ccc(C(C)=NNC2=NCCN2)cc1[N+](=O)[O-]` yielded a pIC50 of 6.11.

For `Cc1ccc(-c2c[n+]3c(n2-c2ccccc2)SCC3)cc1`, the pIC50 was 5.96.

`CCCN(CCC)[P+](CCC)(c1ccc([P+](CCC)(N(CCC)CCC)N(CCC)CCC)cc1)N(CCC)CCC` was tested, and the pIC50 was 6.55.

In the case of `Cc1ccc(-c2[nH]n3c(=O)c4c(nc3c2C)CCCC4)cc1`, the pIC50 was 7.95.

`CCCCc1c(CCC)c(=N)c2ccccc2n1C` showed a pIC50 of 6.61.

With `CN(C)c1ccc(-c2n(C)c3ccccc3[n+]2C)cc1` the pIC50 was 6.76.

Molecule `CCOC(=O)C1=C(C)NC2=C(C(=O)C(C(=O)OCC)C(c3ccc(OC)cc3)C2)C1c1ccc(OC)c(OC)c1` (configuration not stated) has a pIC50 of 6.62.

`CCCc1nc2ccc(NC(=O)c3ccco3)cc2c(=O)n1Cc1ccc(-c2ccccc2)cc1` was tested, and the pIC50 was 6.51.

Work on `C=CCc1c(C)[nH]c2ccc(Br)cc2c1=O` yielded a pIC50 of 6.74.

With `O=C(Nc1c2ccccc2nc2ccccc12)c1cc(Cl)ccc1O` the pIC50 was 6.74.

In the case of `c1ccc2cc3c(N4CCN(CCN5CCN(c6ccnc7cc8ccccc8cc67)CC5)CC4)ccnc3cc2c1`, the pIC50 was 5.54.

`CSc1nnc(-c2cccc([N+](=O)[O-])c2)n1Cc1ccccc1` gave a pIC50 of 5.60.

With `CC(C)(C)c1ccc(Oc2ccc(N3C(=O)C4CC=CCC4C3=O)cc2)cc1` (configuration not stated) the IC50 was > 10000 nM (inactive).

In the case of `COc1ccc2[nH]c3ccccc3c(=O)c2c1`, the pIC50 was 6.87.

`CCCCNC(=O)C(CC)Sc1nnc(-c2ccc(C)cc2)c(-c2ccc(C)cc2)n1` (configuration not stated) gave a pIC50 of 6.54.

With `COc1cncc(-c2cncc(-c3ccc(C)cc3)n2)c1` the IC50 was > 10000 nM (inactive).

Work on `c1ccc(Nc2ccnc(Nc3ccccc3)n2)cc1` yielded a pIC50 of 5.83.

With `CC(=O)Nc1cccc(-c2cncc(-c3ccc(C(=O)O)cc3)n2)c1` the IC50 was > 10000 nM (inactive).

In the case of `CCCCOc1ccc(C2C3CCCC=C3C(C#N)=C(N)C2(C#N)C#N)cc1` (configuration not stated), the IC50 was > 10000 nM (inactive).

With `CCCCSCC(O)CN1CCCCC1` (configuration not stated) the IC50 was > 10000 nM (inactive).

Work on `CCN1C(=O)N(CC)C(NNC(N)=S)C1NNC(N)=S` (configuration not stated) yielded a pIC50 of 7.16.

Molecule `CCN(CC)CCN(Cc1cc2ccc(C)cc2[nH]c1=O)C(=S)NC(C)c1ccccc1` (configuration not stated) has a pIC50 of 6.05.

`CCCCN(CCCC)[P+](N(CCCC)CCCC)(N(CCCC)CCCC)N(CCCC)CCCC` was tested, and the pIC50 was 7.94.

For `CCCCCC[P+](N(CCC)CCC)(N(CCC)CCC)N(CCC)CCC`, the pIC50 was 7.31.

With `COc1ccc(-c2n(CC(=O)OC3CC(C)CCC3C(C)C)c3ccccc3[n+]2C)cc1` (configuration not stated) the pIC50 was 6.81.

`CCCCCCN(C(=O)COc1ccccc1)C(CC)c1nc2ccccc2c(=O)n1-c1cccc(Cl)c1` (configuration not stated) was tested, and the IC50 was > 10000 nM (inactive).

For `O=C1C2=C(Nc3ccccc3SC2c2ccccc2)c2ccccc21` (configuration not stated), the pIC50 was 7.03.

Molecule `COc1ccc2nc(C)cc(Nc3ccc(Oc4ccc(Cl)c5ccccc45)c(Cl)c3)c2c1` has a pIC50 of 6.57.

`COc1ccc(NC(=O)COc2ccccc2C(C)C)c(OC)c1` was tested, and the IC50 was > 10000 nM (inactive).

`CCOC(=O)C1=C(C)NC2=C(C(=O)C(C(=O)OCC)C(c3ccccc3OC)C2)C1c1ccc([N+](=O)[O-])cc1` (configuration not stated) showed a pIC50 of 6.47.

In the case of `O=C(c1cccc(Cl)c1)N1CCN(c2ccc([N+](=O)[O-])c(NC3CC3)c2)CC1`, the pIC50 was 5.49.

Work on `Cc1ccc(CSCc2ccc(C(=O)NC3CC3)o2)cc1` yielded a pIC50 of 7.33.

For `Cc1nc2ccccc2c(=O)n1-c1ccc([N+](=O)[O-])cc1`, the IC50 was > 10000 nM (inactive).
